The text below walks through data of ChEMBL document CHEMBL1140311, “Design and synthesis of new nonsteroidal glucocorticoid modulators through application of an "agreement docking" method” (J Med Chem, 2005).

Broadly, the IC50 is the midpoint of a concentration-inhibition curve.

The target of test [1] is T1, Glucocorticoid receptor (Homo sapiens) (UniProt P04150).
T1 sequence (whole entry): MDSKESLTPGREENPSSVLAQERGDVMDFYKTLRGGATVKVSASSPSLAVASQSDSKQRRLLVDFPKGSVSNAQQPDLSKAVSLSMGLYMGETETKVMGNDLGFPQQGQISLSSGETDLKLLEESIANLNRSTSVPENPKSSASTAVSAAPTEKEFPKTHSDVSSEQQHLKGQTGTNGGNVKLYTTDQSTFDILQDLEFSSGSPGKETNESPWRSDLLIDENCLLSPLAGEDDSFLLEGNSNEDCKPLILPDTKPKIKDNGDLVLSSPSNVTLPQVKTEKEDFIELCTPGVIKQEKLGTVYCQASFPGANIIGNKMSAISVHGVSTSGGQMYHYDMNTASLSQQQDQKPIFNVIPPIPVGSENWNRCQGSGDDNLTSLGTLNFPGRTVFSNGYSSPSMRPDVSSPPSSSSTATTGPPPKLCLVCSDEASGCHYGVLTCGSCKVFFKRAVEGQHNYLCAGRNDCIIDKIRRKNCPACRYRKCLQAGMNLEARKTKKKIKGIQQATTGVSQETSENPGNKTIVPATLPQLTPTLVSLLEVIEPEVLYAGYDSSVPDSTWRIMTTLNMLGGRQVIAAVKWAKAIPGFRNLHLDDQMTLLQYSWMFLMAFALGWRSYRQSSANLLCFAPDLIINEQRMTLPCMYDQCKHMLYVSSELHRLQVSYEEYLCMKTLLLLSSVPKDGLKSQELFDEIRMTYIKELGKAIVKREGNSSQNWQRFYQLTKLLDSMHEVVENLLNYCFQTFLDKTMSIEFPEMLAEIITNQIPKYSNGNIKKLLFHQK
The test is described as follows: Glucocorticoid receptor mediated transrepression of NFkB reporter gene in human A549 lung epithelial cells at 10 uM. Type of test: functional, cell-based.

Test [2] addresses T2, Glucocorticoid receptor (Homo sapiens, UniProt P04150).
T2 sequence (P04150 whole entry): T1 sequence (whole entry)
The test is described as follows: Antagonist activity for Glucocorticoid receptor in MMTV transactivation assay in human A549 lung epithelial cells at 10 uM. The test is classed as functional, cell-based.

A short description of test [3]: Binding affinity for glucocorticoid receptor.
Test [4] deals with T2, Glucocorticoid receptor. Description: Glucocorticoid receptor mediated transrepression of NFkB reporter gene in human A549 lung epithelial cells. Type of test: functional, cell-based. (In general: In a reporter assay the amount or activity of a reporter protein is the signal.)

With `Cc1noc(=O)c2ccc(NC(=O)C(O)(CC3CCc4ccccc43)C(F)(F)F)cc12` (configuration not stated), the Max inhibition in test [1] was 73%. Besides, at Glucocorticoid receptor [2], the IC50 was 4790 nM. Further, in test [3], the “Log IC50” value is -7.81.
`Cc1noc(=O)c2ccc(NC(=O)C(O)(CC3CCCc4ccccc43)C(F)(F)F)cc12` (stereo in doubt; 9d (D2E2)) [listing 1 of 2 here] gave an IC50 on Glucocorticoid receptor [2] of 3890 nM. The “Log IC50” value in test [3] is -7.15.
In test [1], `Cc1noc(=O)c2ccc(NC(=O)C(O)(CC3CCCc4ccccc43)C(F)(F)F)cc12` (stereo in doubt; 9d (D2E2)) [listing 2 of 2 here] showed a Max inhibition of 23%.
Take `Cc1noc(=O)c2ccc(NC(=O)C(O)(CC3CCCc4ccccc43)C(F)(F)F)cc12` (stereo in doubt; 9e (D1E1)) [listing 1 of 2 here]: the IC50 against Glucocorticoid receptor [2] is 562 nM. Also, the “Log IC50” value in test [3] is -8.08.
In test [1], `Cc1noc(=O)c2ccc(NC(=O)C(O)(CC3CCCc4ccccc43)C(F)(F)F)cc12` (stereo in doubt; 9e (D1E1)) [listing 2 of 2 here] came in with a Max inhibition of 51%.
As to `Cc1noc(=O)c2ccc(NC(=O)C(O)(CC3CCCCc4ccccc43)C(F)(F)F)cc12` (stereo in doubt; 15a (D1E2)) [listing 1 of 2 here], the IC50 is 708 nM against Glucocorticoid receptor [2] and 145 nM against Glucocorticoid receptor [4]. Also, the “Log IC50” value in test [3] is given as -8.57.
`Cc1noc(=O)c2ccc(NC(=O)C(O)(CC3CCCCc4ccccc43)C(F)(F)F)cc12` (stereo in doubt; 15a (D1E2)) [listing 2 of 2 here] gave a Max inhibition in test [1] of 60%.
On Glucocorticoid receptor [2], `Cc1noc(=O)c2ccc(NC(=O)C(O)(CC3CCCCc4ccccc43)C(F)(F)F)cc12` (stereo in doubt; 15b (D2E1)) [listing 1 of 2 here] gave an IC50 of 1000 nM. Besides, in test [3], the “Log IC50” value was -7.75.
In the case of `Cc1noc(=O)c2ccc(NC(=O)C(O)(CC3CCCCc4ccccc43)C(F)(F)F)cc12` (stereo in doubt; 15b (D2E1)) [listing 2 of 2 here], the Max inhibition in test [1] is 24%.
For `C[C@@H]1C[C@H]2[C@@H]3CCC4=CC(=O)C=C[C@]4(C)[C@@]3(F)[C@@H](O)C[C@]2(C)[C@@]1(O)C(=O)CO` [DEXAMETHASONE], the “Log IC50” value in test [3] was -8.1.
